We go through 21 compounds from patent publication US20250059182A1, “SOS1 INHIBITORS” (Mirati Therapeutics, Inc., priority 2021, published 2025).

Broadly, the IC50 is the concentration that inhibits the measured activity by half. Broadly, the Ki is the equilibrium dissociation constant of an inhibitor or competing ligand from its target.

Experiment [1] deals with pERK in MKN1 cells. In words: pERK inhibition, In-Cell Western (LI-COR Odyssey), MKN1 cells. Type of experiment: cell-based. The note with it: Homo sapiens, MKN1 or H358 cells (table does not say which), 0.5-1 hour incubation, read-out: IC50 (nM), pERK inhibition. How it is done: This Example illustrates that exemplary compounds of the present invention prevent KRas-mediated GTP nucleotide exchange mediated by SOS1 to inhibit KRas activity thereby inhibiting the generation of the downstream effector pERK.
MKN1 cells (15,000/w) or H358 (30,000/w) were seeded in a black clear flat bottom 96-well cell culture plate (Corning, #3904) and incubated at 37° C. overnight. Assay day 1, cells were dosed with compounds of Formula (I) with a 10 μm starting concentration and serially diluted 3× for a total of 9 concentrations. The cells were incubated for approximately 0.5-1 hour with the compounds solubilized in DMSO at 37° C. Cells were immediately fixed by adding 50 μL of 4% formaldehyde to all wells in a fume hood and the plates were incubated for 20 minutes at room temperature. The formaldehyde was discarded from the plates and 150 μL of ice-cold methanol was added to permeabilize the cells for 10 minutes at −20° C. The methanol was discarded from each of the plates and any liquid remaining in the plate by tapping the plate against paper towels. Cells were then blocked with 150 μL of Odyssey blocking buffer (LI-COR Biosciences #927-50010) using 0.05% Tween for 1 hour at room temperature on a shaker. The blocking buffer was discarded and 50 μL of primary antibodies pERK (cell signaling Technology #9101L; Rabbit, 1:500) and GapDH (Millipore #MAB34; Mouse, 1:5000) diluted in Odyssey blocking buffer was added. The plates were incubated overnight at 4° C. on a shaker.
On Assay day 2, the primary antibody solution was removed. Each plate was washed 3× times with 150 μL of 1×PBST (PBS+0.1% Tween 20) and incubated with 50 μL of secondary antibodies: Anti-Rabbit (LI-COR Biosciences #926-32211) and Anti-Mouse (LI-COR Biosciences #68070) at 1:800 dilution in Odyssey blocking buffer with Tween at room temperature on a shaker for 2 hours (protected from light). The secondary antibody solution as removed and each plate was washed with PBST 3× times. Any liquid remaining was discarded and the plate was imaged using the Licor Odyssey machine according to the manufacturer's instruction, using a set focus length at 3 mm and both 800 nm and 700 nm filters. The GAPDH normalized scan values for each well were divided by the average of vehicle wells to get the % of pERK inhibition. The IC50 values were then calculated with the Graph pad Prism software.

Experiment [2] deals with T1, recombinant human SOS1 polypeptide (amino acids 560-1049) (Homo sapiens, UniProt Q07889).
T1 construct: corresponding to amino acids 560-1049, expressed in E. Coli; made in house; host or cells: E. coli
T1 sequence (Q07889 560-1049): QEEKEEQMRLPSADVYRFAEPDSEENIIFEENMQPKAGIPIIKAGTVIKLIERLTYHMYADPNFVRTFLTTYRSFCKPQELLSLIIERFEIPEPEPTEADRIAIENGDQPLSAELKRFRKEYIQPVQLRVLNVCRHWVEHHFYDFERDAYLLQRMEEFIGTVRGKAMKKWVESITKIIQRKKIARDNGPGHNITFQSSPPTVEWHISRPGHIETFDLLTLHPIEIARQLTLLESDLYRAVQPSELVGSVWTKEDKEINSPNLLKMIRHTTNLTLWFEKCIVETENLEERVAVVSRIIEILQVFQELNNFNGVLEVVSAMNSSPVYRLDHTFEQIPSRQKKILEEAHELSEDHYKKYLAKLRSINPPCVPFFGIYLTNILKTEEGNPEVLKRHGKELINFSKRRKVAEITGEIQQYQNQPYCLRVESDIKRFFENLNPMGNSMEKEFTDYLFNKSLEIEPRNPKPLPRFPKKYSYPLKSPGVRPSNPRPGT
The experiment can be described thus: HTRF displacement assay: inhibition of labeled tracer binding to SOS1.

Where [3] appears, read: Table A, Morrison equation for competitive binding.
Where [4] appears, read: Table A1, Morrison equation for competitive binding.

Counter-ions that a name gives are not always drawn. Like-named read-outs stand apart in the source and are kept apart here.

For `Cc1c(C#N)cccc1[C@@H](C)Nc1nnc(C)c2cnc(N(C)[C@@H]3CCCN(C)C3)cc12` [Example 1-82, 2-methyl-3-((R)-1-((4-methyl-7-(methyl((R)-1-methylpiperidin-3-yl)amino)pyrido[3,4-d]pyridazin-1-yl)amino)ethyl)benzonitrile], the concentration for half-maximal inhibition (IC50) in experiment [1] (MKN-1, Table B) turned out to be 85.2 nM. In addition, the Ki in experiment [2] (setting [3]) was 1.16 nM.

For `Cc1c(C#N)cccc1[C@@H](C)Nc1nnc(C)c2cnc(N3CC[C@H](O)C3)cc12` [Example 1-46, 3-((R)-1-((7-((S)-3-hydroxypyrrolidin-1-yl)-4-methylpyrido[3,4-d]pyridazin-1-yl)amino)ethyl)-2-methylbenzonitrile], the IC50 in experiment [1] (MKN-1, Table B) amounted to 71.3 nM. Also, the Ki in experiment [2] (setting [3]) stood at 1.95 nM.

For the compound `Cc1c(C#N)cccc1[C@@H](C)Nc1nnc(C)c2cnc(NC3CCN(C)CC3)cc12` [Example 1-41, (R)-2-methyl-3-(1-((4-methyl-7-((1-methylpiperidin-4-yl)amino)pyrido[3,4-d]pyridazin-1-yl)amino)ethyl)benzonitrile], the IC50 in experiment [1] (MKN-1, Table B) was 272 nM. For the same compound, the Ki in experiment [2] (setting [3]) amounted to 4.49 nM.

In the case of `Cc1c(C#N)cccc1[C@@H](C)Nc1nnc(C)c2cnc(N3CCN(C(=O)[C@H]4CCCCN4C)CC3)cc12` [Example 2-8, 2-methyl-3-((R)-1-((4-methyl-7-(4-((R)-1-methylpiperidine-2-carbonyl)piperazin-1-yl)pyrido[3,4-d]pyridazin-1-yl)amino)ethyl)benzonitrile], the IC50 in experiment [1] (MKN-1, Table B) was found to be 211 nM. Besides, in experiment [2] (setting [3]), the Ki amounted to 0.67 nM.

For the compound `Cc1c(C#N)cccc1[C@@H](C)Nc1nnc(N2CC(N)C2)c2cnc(N3C[C@H]4C[C@@H]3CO4)cc12` [Example P-177, 3-((R)-1-((4-(3-aminoazetidin-1-yl)-7-((1R,4R)-2-oxa-5-azabicyclo[2.2.1]heptan-5-yl)pyrido[3,4-d]pyridazin-1-yl)amino)ethyl)-2-methylbenzonitrile], the IC50 in experiment [1] (MKN-1, Table B1) was determined as 451 nM. Besides, the Ki in experiment [2] (setting [4]) is 0.541 nM.

For the compound `CCN1CCN(c2cc3c(N[C@H](C)c4cccc(C#N)c4C)nnc(C)c3cc2F)CC1` [Example 4-1, (R)-3-(1-((7-(4-ethylpiperazin-1-yl)-6-fluoro-4-methylphthalazin-1-yl)amino)ethyl)-2-methylbenzonitrile], in experiment [1] (MKN-1, Table B), the IC50 was found to be 82.7 nM. Besides, the Ki in experiment [2] (setting [3]) was 1.73 nM.

`CCN1CCN(c2cc3c(N[C@H](C)c4cccc(C#N)c4C)nnc(C)c3cn2)C[C@H]1C` [Example 1-13, 3-((R)-1-((7-((R)-4-ethyl-3-methylpiperazin-1-yl)-4-methylpyrido[3,4-d]pyridazin-1-yl)amino)ethyl)-2-methylbenzonitrile]: the IC50 in experiment [1] (MKN-1, Table B) stood at 47.3 nM. The Ki in experiment [2] (setting [3]) amounted to 0.82 nM.

As to `Cc1c(C#N)cccc1[C@@H](C)Nc1nnc(C)c2cc(C#N)c(N3CCN(C)CC3)cc12` [Example 6-19, (R)-1-((1-(3-cyano-2-methylphenyl)ethyl)amino)-4-methyl-7-(4-methylpiperazin-1-yl)phthalazine-6-carbonitrile], in experiment [1] (MKN-1, Table B), the IC50 amounted to 222 nM. In addition, the Ki in experiment [2] (setting [3]) turned out to be 2.94 nM.

For the compound `Cc1c(C#N)cccc1[C@@H](C)Nc1nnc(C)c2cnc(N(C)[C@H]3CCCNC3)cc12` [Example 1-53, 2-methyl-3-((R)-1-((4-methyl-7-(methyl((S)-piperidin-3-yl)amino)pyrido[3,4-d]pyridazin-1-yl)amino)ethyl)benzonitrile], the IC50 in experiment [1] (MKN-1, Table B) came out at 210 nM. Besides, in experiment [2] (setting [3]), the Ki is 0.853 nM.

Turning to `Cc1nnc(N[C@H](C)c2cccc(C(F)F)c2F)c2cc(N3CCC34COC4)c(F)cc12` [Example P-232, (R)-N-(1-(3-(difluoromethyl)-2-fluorophenyl)ethyl)-6-fluoro-4-methyl-7-(6-oxa-1-azaspiro[3.3]heptan-1-yl)phthalazin-1-amine], in experiment [1] (MKN-1, Table B1), the IC50 is 7130 nM. Further, the Ki in experiment [2] (setting [4]) was 1.18 nM.

Consider `Cc1c(C#N)cccc1[C@@H](C)Nc1nnc(C)c2cnc(N3CCN(C)C[C@@H]3C)cc12` [Example 1-17, 3-((R)-1-((7-((S)-2,4-dimethylpiperazin-1-yl)-4-methylpyrido[3,4-d]pyridazin-1-yl)amino)ethyl)-2-methylbenzonitrile], for which the IC50 in experiment [1] (MKN-1, Table B) is 42.6 nM. Also, the Ki in experiment [2] (setting [3]) stood at 0.74 nM.

For `Cc1c(C#N)cccc1[C@@H](C)Nc1nnc(C)c2cc(Br)c(N3CCN(C)CC3)cc12` [Example 8-1, (R)-3-(1-((6-bromo-4-methyl-7-(4-methylpiperazin-1-yl)phthalazin-1-yl)amino)ethyl)-2-methylbenzonitrile], the Ki in experiment [2] (setting [3]) turned out to be 2.4 nM.

With `Cc1nnc(N[C@H](C)c2cccc(C(C)(F)F)c2F)c2cc(N3CCN(C)CC3)c(C#N)cc12` [Example 6-21, (R)-1-((1-(3-(1,1-difluoroethyl)-2-fluorophenyl)ethyl)amino)-4-methyl-7-(4-methylpiperazin-1-yl)phthalazine-6-carbonitrile], the Ki in experiment [2] (setting [3]) was found to be 1.05 nM.

On to `Cc1c(C#N)cccc1[C@@H](C)Nc1nnc(C=O)c2cnc(N3CCOCC3)cc12` [Example P-202, (R)-3-(1-((4-formyl-7-morpholinopyrido[3,4-d]pyridazin-1-yl)amino)ethyl)-2-methylbenzonitrile], for which the Ki in experiment [2] (setting [4]) was determined as 49.7 nM.

For the compound `Cc1c(C#N)cccc1[C@@H](C)Nc1nnc(C)c2cnc(OCCNC(=O)CCOC34CC5CC(CC(C5)C3)C4)cc12` [Example P-209, 3-(((3s,5s, 7s)-adamantan-1-yl)oxy)-N-(2-((1-(((R)-1-(3-cyano-2-methylphenyl)ethyl)amino)-4-methylpyrido[3,4-d]pyridazin-7-yl)oxy)ethyl)propanamide], the Ki in experiment [2] (setting [4]) turned out to be 542 nM.

In the case of `Cc1c(C#N)cccc1[C@@H](C)Nc1nnc(C)c2cnc(N3CCOCC3=O)cc12` [Example P-204, (R)-2-methyl-3-(1-((4-methyl-7-(3-oxomorpholino)pyrido[3,4-d]pyridazin-1-yl)amino)ethyl)benzonitrile], in experiment [2] (setting [4]), the inhibition constant Ki was 139 nM.

As to `Cc1c(C#N)cccc1[C@@H](C)Nc1nnc(C)c2cnc(OCCOCCOc3cccc4c3C(=O)N(C3CCC(=O)NC3=O)C4=O)cc12` (stereo partly drawn) [Example P-208, 3-((1R)-1-((7-(2-(2-((2-(2,6-dioxopiperidin-3-yl)-1,3-dioxoisoindolin-4-yl)oxy)ethoxy)ethoxy)-4-methylpyrido[3,4-d]pyridazin-1-yl)amino)ethyl)-2-methylbenzonitrile], the inhibition constant (Ki) in experiment [2] (setting [4]) was found to be 427 nM.

Take `Cc1nnc(N[C@H](C)c2cccc(C(F)F)c2F)c2cc(N3CCN(C)CC3)c(F)cc12` [Example 4-20, (R)-N-(1-(3-(difluoromethyl)-2-fluorophenyl)ethyl)-6-fluoro-4-methyl-7-(4-methylpiperazin-1-yl)phthalazin-1-amine]: in experiment [2] (setting [3]), the Ki amounted to 0.547 nM.

Consider `Cc1c(C#N)cccc1[C@@H](C)Nc1nnc(C)c2cnc(OCCOCCN3C(=O)CCC(N4C(=O)c5cccc(O)c5C4=O)C3=O)cc12` (stereo partly drawn) [Example P-207, 3-((1R)-1-((7-(2-(2-(3-(4-hydroxy-1,3-dioxoisoindolin-2-yl)-2,6-dioxopiperidin-1-yl)ethoxy)ethoxy)-4-methylpyrido[3,4-d]pyridazin-1-yl)amino)ethyl)-2-methylbenzonitrile], for which the Ki in experiment [2] (setting [4]) came out at 865 nM.

Consider `Cc1c(C#N)cccc1[C@@H](C)Nc1nnc(CO)c2cnc(N3CCOCC3)cc12` [Example P-201, (R)-3-(1-((4-(hydroxymethyl)-7-morpholinopyrido[3,4-d]pyridazin-1-yl)amino)ethyl)-2-methylbenzonitrile formic acid salt], for which the Ki in experiment [2] (setting [4]) is 6.36 nM.

On to `Cc1c(C#N)cccc1[C@@H](C)Nc1nnc(C)c2cnc(N3CCOC(=O)C3)cc12` [Example P-203, (R)-2-methyl-3-(1-((4-methyl-7-(2-oxomorpholino)pyrido[3,4-d]pyridazin-1-yl)amino)ethyl)benzonitrile], for which, in experiment [2] (setting [4]), the Ki came out at 26.1 nM.
